Reference: patent publication US20260000642A1 (Tay Therapeutics Limited, priority 2022, published 2026)
Values after ≈ are worked out from the molar mass of the structure shown.

How the values were obtained:
[1] = Thermodynamic solubility in FaSSIF pH 6.5 buffer; assay type: physicochemical; conditions: thermodynamic from solid, FaSSIF pH 6.5, 25° C., Method 2 (LCMS)
From the text: BET protein inhibitors with a high aqueous solubility are in some embodiments promising oral drug candidates. Some of the exemplary compounds of the current disclosure have high solubility (measured in μM) in Fasted State Simulated Intestinal Fluid (FaSSIF) pH 6.5 buffer. The experimental methods and results (Table 4) are provided hereinafter.
Thermodynamic Solubility Assay, Method 1
FaSSIF v2 buffer is freshly prepared prior to use according to the suppliers' instructions and the pH adjusted to 6.5 using 1 M NaOH or 1 M HCl as required. From 1 mM working solution of test compound in DMSO, the λmax of the test compound is determined by scanning from 200 nm to 700 nm, in 1 nm steps with an EPOCH UV/Visible spectrophotometer (Biotek Instruments Inc.). A 12-point standard curve of compound concentration versus absorption at λmax is generated via two-fold serial dilutions of the 1 mM working solution with DMSO. Approximately 1 mg of test compound is accurately weighed into an Eppendorf tube and the appropriate volume of FaSSIF buffer is added to make a nominal concentration of 1 mg/mL. […]
FaSSIF buffer was prepared according to the suppliers' instructions and the pH adjusted to 6.5 using 1 M NaOH or 1 M HCl as required. […] The concentration of the test compound in the filtrate was determined by LCMS analysis with reference to the internal standards to determine the solubility in the buffer.

BRD4 BD2 = biological target: T1, BRD4 BD2 (Homo sapiens, UniProt O60885); test: NanoBRET bromodomain assay, NanoLuc-BRD4-BD2 fusion vector in HEK293 cells; assay type: cell-based; conditions: NanoBRET, HEK293 cells, top concentration 10 μM
T1 construct: HEK293 cells were transfected using NanoLuc-BRD4-BD1 or NanoLuc-BRD4-BD2 fusion vectors; host or cells: HEK293
From the text: (§1) Bromodomain Assay Procedure

[2] = Plasma stability assay, rat plasma; assay type: in vitro ADME; conditions: 37° C., Method 2 (10 μM)
Protocol: Exemplary compounds of the disclosure are stable upon incubation in mouse plasma. Stability is expressed as a % remaining after 120 minutes. The experimental methods and results (Table 2) are provided hereinafter.
Plasma Stability Assay, Method 1
From stock solution of compound in 10 mM DMSO, a working solution of 1 mM is prepared by diluting the compound in DMSO. To 398 μL of plasma pre-warmed at 37° C. for 15 minutes), 2 μL of working solution of compound is added, resulting in a final concentration of 5 μM (0.5% DMSO) for the compound. The sample is then incubated at 37° C. Aliquot is withdrawn at specified time-points (0, 15, 30, 60 and 120 mins). The reaction is stopped by addition of 450 μL cold acetonitrile containing internal standard (IS). […] Aliquots of the supernatant is analysed using LC-MS/MS. The percent remaining of the compound at each time point is calculated with respect to the control sample (0 min time-point).
Plasma Stability Assay, Method 2
A working solution of compound (500 μM) is prepared in DMSO (100%). To 735 μL of plasma, 15 μL of working solution of compound is added—resulting in a final concentration of 10 μM (2% DMSO) for the compound. The sample is then incubated at 37° C. Aliquot is withdrawn at time-points—0, 15, 30, 60, 90 and 120 mins. The reaction is stopped by using chilled acetonitrile containing internal standard (IS). The samples are centrifuged and the supernatants analyzed using LC-MS/MS. The percent remaining of the compound at each time point is calculated with respect to the control sample (0 min time-point).

BRD4 BD1 = biological target: T2, BRD4 BD1 (Homo sapiens, UniProt O60885); test: NanoBRET bromodomain assay, NanoLuc-BRD4-BD1 fusion vector in HEK293 cells; assay type: cell-based; conditions: top concentration 10 μM
T2 construct: HEK293 cells were transfected using NanoLuc-BRD4-BD1 or NanoLuc-BRD4-BD2 fusion vectors; host or cells: HEK293
From the text: as §1

solubility thermodynamic [1]: 1230 µM (≈ 516 µg/mL)
IC50 (BRD4 BD2): 0.05 to 0.2 µM
Plasma Stability (% remaining at 120 minutes) Rat [2]: 89%
IC50 (BRD4 BD1): ≥ 10 µM
SMILES: CNC(=O)c1[nH]c(C(=O)NC2CCC(O)CC2)cc1OC(C)c1ccc(Cl)cc1 (single isomer, unassigned) [Example 29, 3-(1-(4-chlorophenyl)ethoxy)-N^5-(4-hydroxycyclohexyl)-N^2-methyl-1H-pyrrole-2,5-dicarboxamide]
